These results are taken from PMC4279163, “Inhibitory Effect of b-AP15 on the 20S Proteasome” (Biomolecules, 2014).

Where “and” joins values, the source holds several entries; their conditions need not be identical. Equal values may be shown once. Read-outs that look alike come from different tables or passages of the source.

Broadly, the IC50 is the concentration that inhibits the measured activity by half. The term inhibition denotes the relative decrease from the control value, in per cent.

Assay [1] has as its system proteasome of HeLa Ub^G76V-GFP cells. Description: Cell-based proteasome inhibition assay (Ub-GFP accumulation). Particulars: 24 h. The method, then:
It was shown that b-AP15 at 50 μM inhibited the deubiquitination by the 19S regulatory particle, but not the 20S proteasome in in vitro enzymatic assays. […] HeLa Ub^G76V-GFP cells express ubiquitin-green fluorescent protein (Ub-GFP), which is efficiently degraded by the proteasome. HeLa Ub^G76V-GFP cells accumulate Ub-GFP in the presence of proteasome inhibitors. […] Some of the HeLa Ub^G76V-GFP cells turned green in the presence of b-AP15 at a concentration as low as 0.32 μM (Figure 1b). […] Ub-YFP was accumulated in the MelJuSo Ub-YFP cells at a b-AP15 concentration as low as 0.7 μM [12].
Figure 1 b-AP15 inhibited the proteasome of HeLa ubiquitin-green fluorescent protein (Ub^G76V-GFP) cells. HeLa Ub^G76V-GFP cells were treated with b-AP15 at 0.95 μM (a,d); 0.32 μM (b,e), or no b-AP15 (c,f) for 24 h, where (a), (b), and (c) are fluorescence microscopic images; (d), (e), and (f) are regular phase contrast images of the cells.
HeLa Ub^G76V-GFP cells (kindly provided by Nico P. Dantuma, Karolinska Institutet, Stockholm, Sweden) were cultured in DMEM medium supplemented with 10% fetal calf serum, 100 units/mL of penicillin, and 100 µg/mL of streptomycin. […] The green fluorescence emitted by the treated HeLa Ub^G76V-GFP cells was then observed and documented with a Nikon fluorescent microscopic system.

Assay [2] concerns the target T1, human 19S regulatory particles (Homo sapiens, UniProt P54578+Q9Y5K5).
T1 construct: purchased Boston Biochem
Description: 19S regulatory particle de-ubiquitinase assay (ub-AMC). The class given is biochemical. The settings on record: 19S 2.9 nM; ub-AMC 1 μM; read-out: IC50, deubiquitinase activities of the 19S regulatory particles. The method, then: Figure 2 (a) b-AP15 inhibited the 19S regulatory particles. The activity of human 19S regulatory particles (Boston Biochem) was determined in the presence of the fluorogenic substrate ub-AMC and various concentrations of b-AP15 as indicated using a reported assay condition. RFU denotes the relative fluorescence units of the reactions; (b) Inhibitory effect of b-AP15 on the chymotrypsin-like activity of the 20S proteasome. BG in the figure denotes background.
The de-ubiquitinase activities of the human 19S regulatory particles (proteasome) (Boston Biochem, Boston, MA, USA) were determined in the presence of the fluorogenic substrate ub-AMC (Boston Biochem) and various concentrations of b-AP15 using the reported assay condition. The reaction buffer used contained 25 mM HEPES, 50 mM NaCl, 10 mM MgCl2, 2 mM ATP, and 1 mM DDT. The human 19S regulatory particles and the substrate ub-AMC were used at a final concentration of 2.9 nM, and 1 μM, respectively. The proteolysis reaction rate was monitored using a BioTek fluorometer (Winooski, VT, USA).

In assay [3] the target is T2, human 20S proteasome, caspase-like activity (Homo sapiens, UniProt P28072).
T2 construct: purchased Calbiochem
Description: 20S proteasome assay, caspase-like activity ((Z)-LLEbNA). The class given is biochemical. The method, then: (§1) Proteasome assay kits were purchased from Calbiochem, San Diego, CA. The effect of the proteasome inhibitors on the 20S proteasome activities was assayed following the protocols provided by the manufacturer. The major components of the assay mixture are the human 20S proteasome, fluorogenic peptide substrates and a proteasome activator. […] The concentrations of the proteasome activators used, PA28, PALAME, and SDS were 2 μg/mL, 19 μM, and 0.03% (V/V), respectively.
(§2) The trypsin-like and caspase-like activities of the 20S proteasome were determined using the fluorogenic substrates Bz-VGR-AMC (20 μM) and (Z)-LLEbNA (20 μM), respectively. Fluorescence generated from the proteolytic reaction in the presence of various concentrations of the inhibitors was measured using a BioTek fluorometer. […] The value of IC50 is expressed as mean ± standard deviation from three independent assays using CalcuSyn (Biosoft, Cambridge, UK).

The target in assay [4] is T3, human 20S proteasome, trypsin-like activity (Homo sapiens, UniProt Q99436).
T3 construct: purchased Calbiochem
Description: 20S proteasome assay, trypsin-like activity (Bz-VGR-AMC). The class given is biochemical. The settings on record: activator PA28; Bz-VGR-AMC 20 μM; read-out: IC50, trypsin-like activity of PA28-activated 20S proteasome. The method, then:
as §1, §2

Assay [5] concerns the target T4, 20S proteasome, chymotrypsin-like activity (Homo sapiens, UniProt P28074). The assay can be described thus: HPLC analysis of the substrates and products of the 20S proteasome. The class given is biochemical. The settings on record: 0, 2.4, 9.6, 38 μM; PA28 11 μg/mL; 6 h, room temperature. From the text: b-AP15 is highly chromogenic with a conjugated π-bonding system that could potentially be quenching the emitted fluorescence from proteasome cleavage of the substrate. To eliminate the possible effect of quenching by b-AP15, we used HPLC to analyze the substrate and cleaved products, AMC (P1) and Suc-LLVY (P2), after the enzyme reactions. The ratio of P/S was used to express the relative amount of reaction product formation under the assay conditions, where P represents the products and S represents the substrate Suc-LLVY-AMC (S). […]
Figure 3 Inhibition of the chymotrypsin-like activity of the 20S proteasome. The reaction products of the 20S proteasome, AMC (P1), Suc-LLVY (P2), and substrate Suc-LLVY-AMC (S) were analyzed by HPLC. P1/S and P2/S are the ratios of the reaction products and the substrate calculated from the area under the curve of the HPLC profiles.
b-AP15 at various concentrations (0, 2.4, 9.6, and 38 μM) was incubated with the 20S proteasome (4.3 nM), substrate (Suc-LLVY-AMC, 0.2 mM), and PA28 (11 μg/mL) at room temperature for 6 h. […] The reaction products, AMC (P1), Suc-LLVY (P2), and substrate Suc-LLVY-AMC (S) in the filtrate were analyzed using reverse phase HPLC with a gradient of increasing acetonitrile/water ratio. […]

For assay [6], the system named is MelJuSo Ub-YFP reporter cell line. Further details: method as in PMID 22057347. The settings on record: MelJuSo Ub-YFP cells; cited from earlier work.
A further assay has as its system 19S regulatory particle. Also noted: method as in PMID 22057347. Particulars: 50 μM; cited from earlier work.
A further assay concerns 20S proteasome. Also noted: method as in PMID 22057347. The settings on record: 50 μM; SDS as activator; cited from earlier work.
A further assay has as its system multiple myeloma. Also noted: method as in PMID 24319254. The settings on record: human xenograft mouse model; cited from earlier work.
The target in assay [7] is T4, 20S proteasome, chymotrypsin-like activity. The assay can be described thus: 20S proteasome assay, chymotrypsin-like activity (Suc-LLVY-AMC). Also noted: purchased Calbiochem. The class given is biochemical. The settings on record: for IC50: Suc-LLVY-AMC 20 μM, mean ± SD, three assays. The method, then:
as §1, §2

With `C=CC(=O)N1C/C(=C\c2ccc([N+](=O)[O-])cc2)C(=O)/C(=C/c2ccc([N+](=O)[O-])cc2)C1` [b-AP15], in [1] (0.95 μM), the “Accumulation of Ub^G76V-GFP and/or GFP in cells” value is “accumulation of Ub^G76V-GFP and/or GFP in majority of the cells”. Also, in [1] (fluorescence microscopy), the “Lowest concentration at which some cells turned green” value is 0.32 µM. The IC50 in assay [2] is 15.2 µM; in assay [3] (activator PA28, (Z)-LLEbNA 20 μM, read-out: IC50, caspase-like activity of PA28-activated 20S proteasome), above 48 µM; in [4], 40.6 ± 5.23 µM; in assay [7] (activator PA28 2 μg/mL, read-out: IC50, chymotrypsin-like activity of the 20S proteasome activated by PA28), 18.1 ± 3.22 µM; in assay [7] (activator PALAME 19 μM, read-out: IC50, chymotrypsin-like activity of the 20S proteasome activated by PALAME) it was 26 µM and 26.3 µM; in assay [7] (activator SDS 0.03%, read-out: IC50, chymotrypsin-like activity of the 20S proteasome activated by SDS), above 48 µM. Besides, the “Effect on the caspase-like activity” value in assay [3] (up to 48 μM, PA28-activated) is given as “did not significantly affect”. In [5], the “Formation of the two cleaved products AMC (P1) and Suc-LLVY (P2) by HPLC” value is “inhibited the formation of the two cleaved products in a dose dependent manner”. Also, in assay [6], the “Lowest concentration at which Ub-YFP was accumulated” value was 0.7 µM. In addition, the “Inhibition of deubiquitination by the 19S regulatory particle” value with 19S regulatory particle is “inhibited”. The “Inhibition of the 20S proteasome” value in the assay with 20S proteasome was “did not inhibit”. Further, in the assay on multiple myeloma, the Anti-multiple myeloma activity result is “anti-multiple myeloma activity”. Further, the inhibition at 48 µM in [7] (48 μM, 0.03% SDS as activator, read-out: Inhibition of the chymotrypsin-like activity of the SDS-activated 20S proteasome) was below 50%.
